The record followed here is patent US20240391931A1 (Bristol-Myers Squibb Company, priority 2021, published 2024).

For orientation: EC50 means the concentration needed to bring the measured effect to its halfway point.

One test has as its target EGFR (Homo sapiens, UniProt P00533). Kind of test: EGFR signaling (pEGFR Tyr1068/total EGFR MSD) in A431 cells. The class given is cell-based. Set-up: endogenous in cells; host or cells: A431, N87. To be noted: for EC50: A431 cells, read-out: A431 pEGFR EC50; for Selectivity A431 EC50/BT474 EC50: ratio A431 pEGFR EC50 to BT474 pHER2 EC50; for Selectivity A431 EC50/HEKYVMA EC50: ratio A431 pEGFR EC50 to HEK YVMA pHER2 EC50. A digest of the protocol:
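EC50 was fitted with variable Hill slope from MSD pTyr1068/total EGFR ratios, expressed as % DMSO control. A431 cells were starved overnight, then exposed 1.5 h to eight concentrations from 10 to 0.005 μM in 1% FBS before a 10-min 100 ng/mL EGF pulse.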

Another test addresses HER2YVMA (Homo sapiens, UniProt P04626, INS775YVMA). Description: HER2 signaling (pHER2) in Hek293-HER2YVMA cells. The class given is cell-based. The arrangement: expressed in transfected cells; host or cells: HEK293 (pool), Ba/F3 (clones), BEAS2B (clones); lentiviral vector pCDH-CMV-MCS-EF1-Neo. Conditions: 1.5 hr compound, 1% FBS, read-out: HEKYVMA pHER2 EC50. How it is done: Cell culture, plasmid cloning, and lentiviral transduction were carried out according to standard procedures. The Human HER2 cDNA construct in pCMV6-Entry for the HER2 wildtype (WT) expression was obtained from Origene. The HER2 cDNA including the 12-nucleotide insertion corresponding to YVMA insertion (HER2YVMA) was codon optimized, synthesized and cloned by GenScript (Piscataway, NJ) in pcDNA3.1. The lentiviral constructs expressing HER2YVMA and HER2 WT were sub-cloned using PCR at System Biosciences (SBI, Mountainview, CA) into lentiviral vectors pCDH-CMV-MCS-EF1-Neo and lentiviral particles were generated.
Engineered lines expressing HER2YVMA and HER2 WT were prepared in HEK293 (human embryonic kidney cells), Ba/F3 (Interleukin 3 (IL3)-dependent murine pro B cell line), and BEAS2B (primary immortalized human bronchial epithelial cell line). Ba/F3, BEAS2B, and HEK293 cells were obtained from the American Type Culture Collection (ATCC, Manassas, VA). Parental Ba/F3 cells were grown in suspension in complete RPMI 1640 supplemented with 10% FBS and 1% P/S and 10 ng/ml interleukin 3 (IL3, Sigma-Aldrich). Hek293 and BEAS2B cells were grown as monolayers in DMEM supplemented with 10% FBS and 1% P/S. All cells were maintained and propagated in a humidified 5% CO2 incubator at 37° C.
To generate Ba/F3, BEAS2B, and Hek-293 cells engineered with lentivirus to express HER2 WT or HER2YVMA, the cells were transduced with lentiviruses at multiplicity of infection (MOI) of 1 or 10; transduced cells were selected and maintained with G418 ([…]) (Geneticin, Life Technologies, Carlsbad, CA). Ba/F3 engineered cells were subjected to gradual withdrawal of interleukin 3 (IL-3, Sigma-Aldrich). After selection, IL3 independent Ba/F3 HER2YVMA, and BEAS2B HER2YVMA cells were cloned by limiting dilution. Hek293 HER2YVMA cells were used as pool. HER2 and phospho HER2 levels were confirmed by flow cytometery and immunoassay (MSD, Meso-Scale Discovery, Rockville, Maryland).
HER2 signaling was assessed in BT474 and N87 cell lines which endogenously overexpress the HER2 wildtype (WT) protein, in NCI-H1781 cells which endogenously expresses a HER2 mutant protein containing a VC insertion in the kinase domain (HER2VC or G776delinsVC), and in engineered cell lines transduced to express the Her2 mutant protein containing the YVMA insertion (Hek293-HER2YVMA and BEAS2B-HER2YVMA).
BT474, N87, and NCI-H1781 were plated in 96-well tissue-culture treated plates (Corning Costar, Sigma-Aldrich) in full media and incubated overnight. Hek293-HER2YVMA and BEAS2B-HER2YVMA cells were plated in 96-well poly-D-lysine treated plates (BD Bioscience, San Jose, CA). For treatment with test compounds, the media was replaced with corresponding low serum media (1% FBS) containing test compound at 1.1, 0.37, 0.12, 0.041, 0.014, 0.005, 0.0014, 0.0005 μM or DMSO control (0.1%). Cells were incubated with compound for 1.5 hr at 37° C. After compound treatment, the media was removed and cells were lysed for 30 min on ice in complete MSD lysis buffer (prepared using MSD base lysis buffer (Meso-Scale Discovery) supplemented with cOmplete, EDTA-free Protease inhibitor cocktail (Roche), Phosphatase Inhibitor Cocktails 2 and 3 (Sigma-Aldrich), and 1 mM PMSF (Sigma-Aldrich)). Lysates were stored at −70° C. until further analysis.
HER2 signaling was evaluated using phospho (Tyr1248)/total ErbB2 whole cell lysate MSD plates (Meso-Scale Discovery, Gaithersburg, MD). The phospho HER2 signal was normalized to total HER2 for each sample; results are reported as % DMSO control. The normalized data was fitted using a sigmoidal curve analysis program (Graph Pad Prism version 6) with variable Hill slope to determine EC50 values.
The HER2 signaling results are provided in Table 4, under columns titled “BT474-pHER2 EC50”, “N87-pHER2 EC50”, and “NCI-H1781-pHER2 EC50”. […]

Chain of EGFR (P00533 25-1210): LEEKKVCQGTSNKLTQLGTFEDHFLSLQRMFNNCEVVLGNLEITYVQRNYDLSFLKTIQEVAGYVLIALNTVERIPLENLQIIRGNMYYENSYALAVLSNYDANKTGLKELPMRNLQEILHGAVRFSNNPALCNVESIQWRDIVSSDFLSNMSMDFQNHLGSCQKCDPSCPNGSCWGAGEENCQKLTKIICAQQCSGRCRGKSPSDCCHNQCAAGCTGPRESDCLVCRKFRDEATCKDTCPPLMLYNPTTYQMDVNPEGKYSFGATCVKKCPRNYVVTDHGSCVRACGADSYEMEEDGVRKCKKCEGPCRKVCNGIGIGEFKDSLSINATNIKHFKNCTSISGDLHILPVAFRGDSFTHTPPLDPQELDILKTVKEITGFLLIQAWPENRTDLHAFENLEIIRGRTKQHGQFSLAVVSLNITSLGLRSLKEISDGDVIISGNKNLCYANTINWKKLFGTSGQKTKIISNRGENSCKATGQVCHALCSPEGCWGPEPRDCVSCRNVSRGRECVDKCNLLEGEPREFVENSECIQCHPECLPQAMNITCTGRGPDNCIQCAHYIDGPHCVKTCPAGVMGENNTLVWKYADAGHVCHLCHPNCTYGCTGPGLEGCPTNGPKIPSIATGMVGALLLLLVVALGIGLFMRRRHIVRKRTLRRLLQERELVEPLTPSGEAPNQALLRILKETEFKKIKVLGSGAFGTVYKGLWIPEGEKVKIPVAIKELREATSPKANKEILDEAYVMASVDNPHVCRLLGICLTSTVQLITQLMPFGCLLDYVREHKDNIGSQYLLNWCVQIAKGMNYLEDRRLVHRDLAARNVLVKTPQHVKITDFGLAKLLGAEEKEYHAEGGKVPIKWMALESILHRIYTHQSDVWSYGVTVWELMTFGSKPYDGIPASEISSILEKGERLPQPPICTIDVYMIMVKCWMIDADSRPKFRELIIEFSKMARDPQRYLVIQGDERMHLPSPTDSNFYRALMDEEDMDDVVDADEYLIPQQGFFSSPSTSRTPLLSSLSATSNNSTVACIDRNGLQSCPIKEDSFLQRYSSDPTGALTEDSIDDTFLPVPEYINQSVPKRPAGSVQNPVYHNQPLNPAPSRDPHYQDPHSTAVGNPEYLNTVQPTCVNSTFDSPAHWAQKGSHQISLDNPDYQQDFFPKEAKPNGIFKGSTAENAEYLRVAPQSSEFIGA
Chain of HER2YVMA (P04626 with tags, fused parts or gaps INS775YVMA): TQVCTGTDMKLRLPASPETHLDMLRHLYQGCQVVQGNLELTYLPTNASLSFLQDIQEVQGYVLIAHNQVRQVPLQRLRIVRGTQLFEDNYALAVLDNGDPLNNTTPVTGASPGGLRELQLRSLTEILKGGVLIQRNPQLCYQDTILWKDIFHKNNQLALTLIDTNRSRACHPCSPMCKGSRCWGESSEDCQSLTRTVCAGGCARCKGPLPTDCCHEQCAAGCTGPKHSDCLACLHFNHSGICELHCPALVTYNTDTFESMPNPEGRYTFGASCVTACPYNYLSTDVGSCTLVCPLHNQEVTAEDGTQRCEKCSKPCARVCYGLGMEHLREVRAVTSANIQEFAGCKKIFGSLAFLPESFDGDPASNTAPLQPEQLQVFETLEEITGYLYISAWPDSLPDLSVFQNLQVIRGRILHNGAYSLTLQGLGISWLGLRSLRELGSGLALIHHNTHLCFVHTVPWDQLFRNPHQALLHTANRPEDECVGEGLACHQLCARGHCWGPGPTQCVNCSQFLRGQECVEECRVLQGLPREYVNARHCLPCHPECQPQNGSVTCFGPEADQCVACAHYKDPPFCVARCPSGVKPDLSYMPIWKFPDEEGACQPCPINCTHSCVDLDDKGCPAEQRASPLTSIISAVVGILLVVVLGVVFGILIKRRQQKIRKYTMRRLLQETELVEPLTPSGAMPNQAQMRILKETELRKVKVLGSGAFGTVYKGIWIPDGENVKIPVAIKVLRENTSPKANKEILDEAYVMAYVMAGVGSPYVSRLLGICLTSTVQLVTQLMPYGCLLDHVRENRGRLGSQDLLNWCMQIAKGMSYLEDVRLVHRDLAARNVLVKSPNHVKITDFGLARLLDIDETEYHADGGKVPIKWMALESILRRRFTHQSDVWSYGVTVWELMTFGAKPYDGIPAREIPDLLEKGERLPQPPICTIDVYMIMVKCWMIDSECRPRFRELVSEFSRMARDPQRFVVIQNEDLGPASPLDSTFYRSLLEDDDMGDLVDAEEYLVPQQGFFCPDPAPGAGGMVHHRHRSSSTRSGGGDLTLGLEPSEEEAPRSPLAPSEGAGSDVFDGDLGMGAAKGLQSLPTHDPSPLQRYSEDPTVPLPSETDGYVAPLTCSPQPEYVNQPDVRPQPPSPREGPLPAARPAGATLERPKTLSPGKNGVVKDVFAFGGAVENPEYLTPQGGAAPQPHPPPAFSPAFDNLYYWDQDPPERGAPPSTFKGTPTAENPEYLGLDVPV

Take `O=C(/C=C/CN1CCOCC1)N1CCc2c(sc3ncnc(Nc4ccc(Oc5ccc6ncnn6c5)c(Cl)c4)c23)C1` [Compound 18]: on EGFR, the concentration for a half-maximal effect (EC50) was 100 to 1000 nM; the “Selectivity A431 EC50/BT474 EC50” value is “B (B: ≥ 20 and < 100)”; the “Selectivity A431 EC50/HEKYVMA EC50” value is “B (B: ≥ 20 and < 100)”. Besides, the EC50 on HER2YVMA was less than 100 nM.
With `Cc1ccc(Oc2ccc(Nc3ncnc4sc5c(c34)CCN(C(=O)/C=C/CN3CCCC(F)(CO)C3)C5)cc2C)cn1` (stereo not shown) [Compound 150], at EGFR, the EC50 was in the range of 100 to 1000 nM; the “Selectivity A431 EC50/BT474 EC50” value is “B (B: ≥ 20 and < 100)”; the “Selectivity A431 EC50/HEKYVMA EC50” value is “E (E: >1 and < 5)”. Further, the EC50 on HER2YVMA is less than 100 nM.
`Cc1ccc(Oc2ccc(Nc3ncnc4sc5c(c34)C(C)N(C(=O)C=CCN(C)C)C5)cc2C)cn1` (single isomer, unassigned) [Compound 147]: at EGFR, the EC50 is less than 100 nM; the “Selectivity A431 EC50/BT474 EC50” value is “B (B: ≥ 20 and < 100)”; the “Selectivity A431 EC50/HEKYVMA EC50” value is “D (D: ≥ 5 and < 10)”. The EC50 on HER2YVMA is less than 100 nM.
Turning to `Cc1ccc(Oc2ccc(Nc3ncnc4sc5c(c34)CC(C)N(C(=O)C=CCN(C)C)C5C)cc2C)cn1` (single isomer, unassigned) [Compound 162], at EGFR, the half-maximal effective concentration (EC50) was more than 10000 nM; the “Selectivity A431 EC50/BT474 EC50” value was “B (B: ≥ 20 and < 100)”; the “Selectivity A431 EC50/HEKYVMA EC50” value was “B (B: ≥ 20 and < 100)”. Moreover, the EC50 on HER2YVMA was in the range of 100 to 350 nM.
Turning to `C=CC(=O)N1CCc2c(sc3ncnc(Nc4ccc(Oc5cccnc5)c(Cl)c4)c23)C1` [Compound 6, 1-(4-((3-chloro-4-(pyridin-3-yloxy)phenyl)amino)-5,8-dihydropyrido[4′,3′:4,5]thieno[2,3-d]pyrimidin-7(6H)-yl)prop-2-en-1-one], on EGFR, the EC50 was less than 100 nM; the “Selectivity A431 EC50/BT474 EC50” value is “E (E: >1 and < 5)”; the “Selectivity A431 EC50/HEKYVMA EC50” value was “E (E: >1 and < 5)”. Further, the EC50 on HER2YVMA is less than 100 nM.
As for `Cc1cn2ccc(Oc3ccc(Nc4ncnc5sc6c(c45)CCN(C(=O)/C=C/CN(C)C)C6)cc3C)cc2n1` [Compound 110, (E)-4-(dimethylamino)-1-(4-((3-methyl-4-((2-methylimidazo[1,2-a]pyridin-7-yl)oxy)phenyl)amino)-5,8-dihydropyrido[4′,3′:4,5]thieno[2,3-d]pyrimidin-7(6H)-yl)but-2-en-1-one], on EGFR, the EC50 lay within 1000 to 10000 nM; the “Selectivity A431 EC50/BT474 EC50” value was “B (B: ≥ 20 and < 100)”; the “Selectivity A431 EC50/HEKYVMA EC50” value is “C (C: ≥ 10 and < 20)”. Moreover, on HER2YVMA, the EC50 lay within 100 to 350 nM.
With `COc1ccc(Oc2ccc(Nc3ncnc4sc5c(c34)CCN(C(=O)/C=C/CN(C)C(C)(C)C)C5)cc2C)cn1` [Compound 163], on EGFR, the 50% effective concentration (EC50) is less than 100 nM; the “Selectivity A431 EC50/BT474 EC50” value was “D (D: ≥ 5 and < 10)”; the “Selectivity A431 EC50/HEKYVMA EC50” value was “E (E: >1 and < 5)”. For the same molecule, the EC50 at HER2YVMA was less than 100 nM.
On to `Cc1ccc(Oc2ccc(Nc3ncnc4sc5c(c34)CCN(C(=O)/C=C/CN3CCC[C@H](CO)C3)C5)cc2C)cn1` [Compound 155], for which, on EGFR, the EC50 is less than 100 nM; the “Selectivity A431 EC50/BT474 EC50” value is “B (B: ≥ 20 and < 100)”; the “Selectivity A431 EC50/HEKYVMA EC50” value is “E (E: >1 and < 5)”. The EC50 on HER2YVMA was less than 100 nM.
For `Cc1cc(Nc2ncnc3sc4c(c23)CCN(C(=O)/C=C/CN(C)C)CC4)ccc1Oc1ccn2ncnc2c1` [Compound 168], on EGFR, the EC50 was 1000 to 10000 nM; the “Selectivity A431 EC50/BT474 EC50” value was “A (A: ≥100)”; the “Selectivity A431 EC50/HEKYVMA EC50” value is “B (B: ≥ 20 and < 100)”. The EC50 on HER2YVMA is 100 to 350 nM.
For the molecule `C#CCOCCN(C)C/C=C/C(=O)N1CCc2c(sc3ncnc(Nc4ccc(Oc5ccc(C)nc5)c(C)c4)c23)C1` [Compound 139], at EGFR, the 50% effective concentration (EC50) was less than 100 nM; the “Selectivity A431 EC50/BT474 EC50” value is “B (B: ≥ 20 and < 100)”; the “Selectivity A431 EC50/HEKYVMA EC50” value was “B (B: ≥ 20 and < 100)”. The EC50 at HER2YVMA is less than 100 nM.
